Assay [1] concerns Human promyelocytic leukemia HL-60 cells. Kind of assay: Antiproliferation activity against HL-60 cells (MTT method). In kind it is cell-based. The note with it: 48 hour incubation. The method, then:
Human promyelocytic leukemia HL-60 cells (ATCC CCL-240) were cultured at 37° C. in RPMI 1640 medium (Gibco) containing 10% of fetal calf serum (JRH Bioscience) which had been treated at 56° C. for 30 minutes, and suspended in the same medium at a concentration of 5000 cells/90 μl. Each 90 μl portion of the suspension was distributed into each well of a 96-well plate (Falcon). To the suspension in each well was added 10 μl of one the following samples, and incubated at 37° C. in the presence of 5% CO2. The samples were 2-, 4-, 8-, 16-, 32-, 64- or 128-dilutions of filter-sterilized 200 mM aqueous solution of the compound (2) obtained in Example 1, 50 mM aqueous solution of the compound (7), 50 mM aqueous solution of the compound (9), 100 mM aqueous solution of the compound (11), 100 mM aqueous solution of the compound (14), 20 mM aqueous solution of the compound (17), 12.5 mM aqueous solution of the compound (19) or 12.5 mM aqueous solution of the compound (21) with sterile water, as well as water. After 48 hour from the initiation of the incubation, the numbers of viable cells calculated based on the absorbance measured according to the MTT method as described in “Apoptosis Jikken Protocol” (Syuzyun-sha, Seiichi Tanuma, ed., pp. 156 (1994)) were compared each other.
A general note: Formazan colour is commonly taken as a measure of viable cells.

Assay [2] has as its system HL-60 (ATCC CCL-240) cells. Kind of assay: Viability of HL-60 cells by Trypan Blue staining. Conditions: Homo sapiens, read-out: Viability50, concentration that results in a viability of 50%. In kind it is cell-based. As for the experimental part:
HL-60 (ATCC CCL-240) cells were cultured at 37° C. in RPMI 1640 medium (Bio Whittaker) containing 10% fetal calf serum (JRH) which had been treated at 56° C. for 30 minutes and suspended in RPMI 1640 medium at a concentration of 2.5×10^5 cells/4.5 ml.
[…] each of aqueous solutions of the compound (2) at a concentration of 10, 50 or 100 mM, the compound (7) at a concentration of 500, 1000 or 1500 μM, the compound (9) at a concentration of 750, 1500 or 3000 μM, the compound (11) at a concentration of 750, 1500 or 3000 μM, or the compound (14) at a concentration of 750, 1500 or 3000 μM was added to 4.5 ml of the suspension. The mixtures were incubated at 37° C. for 24 hours in the presence of 5% CO2.
A portion of the cells cultured for 24 or 48 hours as described in Example 4 was stained with 0.4% Trypan Blue and examined under an optical microscope. The number of viable cells which were not stained and the number of dead cells which were stained blue were counted. The concentration of each of the compounds (2), (7), (9), (11) and (14) that results in a viability of 50% (Viability50 mM) was determined.

Assay [3] relates to heme oxygenase 1 protein in RAW264.7 cells. As to the kind of experiment: Heme oxygenase 1 induction (Western blot). The format is cell-based. Details: key: − represents no band observed; increase in the intensity of the band is represented as follows: +−<+<++; increase in the intensity of the band is represented as follows: +−<+<++; increase in the intensity of the band is represented as follows: +−<+<++. Conditions: 12 hours, positive control: 5 μl of 3 mM solution in dimethyl sulfoxide added to 5 ml. As for the experimental part: RAW264.7 cells (ATCC TIB 71) were suspended in Dulbecco's modified Eagle's medium (Bio Whittaker, 12-604F) containing 10% fetal calf serum (Gibco) at a concentration of 3×10^5 cells/ml. 5 ml of the suspension was added to each well of a 6-well microtiter plate and the plate was incubated at 37° C. overnight in the presence of 5% CO2. 50 μl of a solution containing the compound (11) or the compound (14) at a concentration of 10 mM or 5 mM in water, 5 μl of a solution containing the compound (7) at a concentration of 50 mM or 25 mM in dimethyl sulfoxide, or 5 μl of a solution containing the compound (17) at a concentration of 100 mM or 50 mM in dimethyl sulfoxide was added to the well. The plate was incubated for 12 hours. A positive control for heme oxygenase 1 induction in which 5 μl of 3 mM solution of 15-deoxy-Δ12,14 prostaglandin J2 (Cayman Chemical, 18570) in dimethyl sulfoxide was added, and a negative control in which water was added were provided. The cells were recovered by detaching the cells from the plate using a scraper and suspended in 0.1 M tris-HCl buffer (pH 7.5) containing 0.05 mM pepstatin A (Sigma, P5318), 0.2 mM leupeptin (Sigma, L2884), 1 mM phenylmethylsulfonyl fluoride (Nacalai Tesque, 273-27), 10 mM ethylenediaminetetraacetic acid disodium salt and 0.1% Triton X-100. A supernatant obtained by centrifuging the suspension after freezing and thawing was used as a protein fraction. The content of protein in the protein fraction was determined using Micro BCA Protein Assay Reagent (a product of Pierce sold by Takara Shuzo, P7411). A sample from the protein fraction prepared as described above was mixed with an equal volume of 0.125 M tris-hydrochloride buffer (pH 6.8) containing 4% sodium lauryl sulfate (SDS), 2% 2-mercaptoethanol, 0.001% Bromophenol Blue and 20% glycerol. After treatment at 100° C. for 5 minutes, a portion corresponding to 10 μg of protein was loaded on 12.5% SDS-polyacrylamide gel and electrophoresed at a constant current of 20 mA. After electrophoresis, the gel was transferred to a PVDF membrane (Millipore, IPVH000 10) at a constant voltage of 15 V for 25 minutes using a blotting buffer (containing 48 mM tris, 39 mM glycine, 20% methanol and 0.0375% SDS) and Trans-Blot SD Cell Semi-Dry blotting apparatus (Bio-Rad) according to the attached protocol. After transferring, the PVDF membrane was blocked in a solution of Block Ace (Dainippon Pharmaceutical, UK-B25) at 4 C overnight. After blocking, the membrane washed three times in phosphate buffered saline containing 0.1% Tween 20 for 15 minutes with gentle shaking. The membrane was reacted in phosphate buffered saline containing 10% Block Ace, 0.1% Tween 20 and 200 ng/ml of anti-heme oxygenase 1 antibody (N-19; Santa Cruz, sc-7696) at room temperature for 1 hour with gentle shaking, and then washed three times in phosphate buffered saline containing 0.1% Tween 20 for 15 minutes with gentle shaking. The membrane was reacted in phosphate buffered saline containing 10% Block Ace, 0.1% Tween 20 and 0.1% peroxidase-labeled rabbit anti-goat IgG (H+L) antibody (Zymed, 61-1620) at room temperature for 1 hour with gentle shaking, and then washed five times in phosphate buffered saline containing 0.1% Tween 20 for 15 minutes with gentle shaking. The PVDF membrane was stained using Western Blot Chemiluminescence Reagent Plus (a product of NEN Life Science Products sold by Daiichi Pure Chemicals, NEL103) according to the attached protocol and exposed to an X-ray film (Kodak, CAT165 1454). After exposure, the film was developed using FPM800 (Fuji Film).
The intensity of the band depended on the concentration of the sample. In the table, the intensity of the band for heme oxygenase 1 protein is expressed by the mark +. Specifically, − represents no band observed, and increase in the intensity of the band is represented as follows: +−<+<++.
In general terms: A western blot detects proteins with antibodies after separation by electrophoresis.

The subject of assay [4] is HL-60 cells (ATCC CCL-240). Kind of assay: Proliferation of HL-60 cells with or without hydroxyurea G1 arrest (WST-1). The format is cell-based, Human. The note with it: 48 hours. The method, then:
HL-60 cells (ATCC CCL-240) were suspended in RPMI 1640 medium (Bio Whittaker, 12-702F) containing 10% fetal calf serum (Gibco) and 100 μM hydroxyurea at a concentration of 5×10^5 cells/ml. 20 ml of the suspension was added to a 10-cm Petri dish. The dish was incubated at 37° C. overnight in the presence of 5% CO2 to make the cells arrest at G1 phase. The cells were collected by centrifugation and resuspended in RPMI 1640 medium containing 10% fetal calf serum (Gibco) and 100 μM hydroxyurea at a concentration of 5×10^5 cells/ml. 5 ml of the suspension was added to each well of a 6-well microtiter plate. On the other hand, as cells without the treatment with hydroxyurea, HL-60 cells were suspended in RPMI 1640 medium containing 10% fetal calf serum (Gibco) at a concentration of 1×10^5 cells/ml. 5 ml of the suspension was added to each well of a 6-well microtiter plate. 50 μl of a solution containing DGE at a concentration of 30, 22.5, 15 or 7.5 mM in water, 25 μl of a solution containing the compound (7) at a concentration of 60, 45, 30 or 15 mM in dimethyl sulfoxide, or 25 μl of a solution containing the compound (17) at a concentration of 100, 75, 50 or 25 mM in dimethyl sulfoxide was added to the well containing the cells treated with hydroxyurea. 50 μl of a solution containing DGE at a concentration of 8, 6, 4 or 2 mM in water, 25 μl of a solution containing the compound (7) at a concentration of 30, 22.5, 15 or 7.5 mM in dimethyl sulfoxide, or 25 μl of a solution containing the compound (17) at a concentration of 80, 60, 40 or 20 mM in dimethyl sulfoxide was added to the well containing the cells without the treatment with hydroxyurea. The plate was incubated for additional 48 hours. Cells collected by centrifuging the culture were suspended in 5 ml of fresh RPMI 1640 medium containing 10% fetal calf serum (Gibco). 100 μl of the suspension was used for measuring viable cell number using Premix WST-1 Cell Proliferation Assay System (Takara Shuzo, MK400).
For each of the samples, the concentration at which 50% of the proliferation is inhibited (IC50) for the cells treated with hydroxyurea was higher than that for the cells without the treatment with hydroxyurea. Table 3 summarizes IC50 (μM) for each of the samples. […] Since most of cells in a living body are arrested at G1 phase, it is considered that DGE and R-AhGal compounds (precursors of DGE) are agents less toxic to a living body.

Results on 3 compounds are retold here after US6518302B1, “Remedies” (Takara Shuzo Co., Ltd., priority 1999, dated 2003).

The structures appear in SMILES notation. Read-outs that look alike come from different tables or passages of the source.

For `CC(=O)OCC1OC(OC2C(O)COC2C(O)C(O)O)C(OC(C)=O)C(OC(C)=O)C1OC(C)=O` [Compound (9), 4-O-(β-D-2,3,4,6-tetra-O-acetylgalactopyranosyl)-3,6-anhydro-D-galactose], the “antiproliferation activity against HL-60 cells” value in assay [1] is “exhibited antiproliferation activities”. The IC50 in assay [1] (Homo sapiens, HL-60 cells, read-out: IC50, concentration at which 50% of the proliferation is inhibited) turned out to be 113 µM; in assay [2] (24 hours), 17200 µM; in assay [2] (48 hours), 189 µM.
For the compound `CCCCC/C=C/C=C1/C(=O)C=C[C@@H]1C/C=C\CCCC(=O)O` [15-deoxy-Δ12,14 prostaglandin J2, reference compound], in assay [3], the “Intensity of band for heme oxygenase 1 protein” value is recorded as “+”.
Take `O=C1C=CC(CO)OC1O` [DGE, L-glycero-1,5-epoxy-1αβ,6-dihydroxy-cis-hex-3-en-2-one, reference compound]: the IC50 in assay [4] (HL-60 cells arrested at G1 phase with 100 μM hydroxyurea, read-out: IC50, Cells treated with hydroxyurea) was found to be 101 µM; in assay [4] (HL-60 cells, read-out: IC50, Cells without treatment with hydroxyurea), 49.5 µM.
